Publication PMC8287944, “5-Fluorouracil blocks quorum-sensing of biofilm-embedded methicillin-resistant Staphylococcus aureus in mice” (Nucleic Acids Research, 2021)

How the values were obtained:
[1] = tested on: MRSA ATCC 43300; test: Murine tissue cage (foreign-body) infection model, prophylaxis; type: in vivo, Staphylococcus aureus; conditions: C57BL/6 mice; for Effect on biofilm / adherent MRSA / Effect on planktonic MRSA infection: prophylactic treatment; for Effect on biofilm / adherent MRSA: explanted cages 2 days post-infection; for Effect on planktonic MRSA infection: tissue cage fluid 2 days post-infection
Protocol: To evaluate the prophylactic efficacy of 5-FU against MRSA infection, we used our murine model of foreign-body infection, which closely mimics human implant-associated infections. This model of foreign-body infection ([26],[27]) was established with the approval of the Kantonale Veterinaeramt Basel-Stadt, Switzerland (permit no. 1710). Experiments were conducted according to the regulations of Swiss veterinary law and performed in the animal house of the Department of Biomedicine, University Hospital Basel, Switzerland. Healthy wild-type female C57BL/6 mice at 13 weeks of age (JanvierLabs, France) kept under specific pathogen-free conditions (biosafety level 2) were anesthetized, followed by the subcutaneous implantation of sterile cylindrical Teflon tissue cages (8.5 × 1 × 30 mm; volume: 1.9 ml) with 130 regularly spaced holes (Angst + Pfister AG, Zurich, Switzerland). They were housed in a 12 hr light/dark cycle (light from 7 am to 7 pm) in a temperature-controlled room (24°C) with free access to regular mice chow and water. Mice were randomly assigned to experimental groups, which were not involved in previous procedures. The mice were randomized into groups, which were treated as follows: saline (untreated growth control; n = 7), saline with 5.2844 mg/kg DPD (n = 4), 50 mg/kg daptomycin (DAP) (Novartis, Basel, Switzerland) (n = 11), 10 mg/kg 5-FU with and without 50 mg/kg DAP (each n = 8), 40 mg/kg 5-FU with or without 50 mg/kg DAP (n = 16 and n = 13, respectively), 40 mg/kg 5-FU with 1 μM DPD (n = 6), or 40 mg/kg 5-FU with 50 mg/kg DAP and 5.2844 mg/kg DPD (n = 8). DAP was given intraperitoneally immediately before implantation, and 5-FU and DPD was given immediately after implantation directly into the lumen of the cage. Afterwards, the cages were infected with 965 CFU of MRSA 43300. At 2 days post-infection, tissue cage fluid was collected, and the planktonic bacterial load was evaluated by plating on blood agar plates. In additional, mice were sacrificed and the tissue cages were explanted under aseptic conditions. The explanted tissue cages were washed twice with phosphate-buffered saline followed by 30 s vortexing, sonication for 3 min at 130 W and another 30 s vortexing to release adherent bacteria from the biofilm. Quantification of adherent bacteria was performed by plating appropriated dilutions on blood agar plates. To determine the prevention rate, the presence of any re-growth of MRSA was examined by further incubation of the cage in tryptic soy broth (TSB) for 48 h at 37°C. MRSA re-growth represents therapy failure, and the prevention rate was defined as the percentage of cages without growth in each treatment group.
Figure 6. Prophylactic effect of 5-FU against MRSA ATCC 43300 in a murine tissue cage infection model. Read-outs were obtained two days after infection with 965 CFU/cage and treatment with saline, saline with 1 μM AI-2, 50 mg/kg daptomycin (DAP), 10 mg/kg 5-FU with or without 50 mg/kg DAP, 40 mg/kg 5-FU with or without 50 mg/kg DAP or 40 mg/kg 5-FU with 50 mg/kg DAP and 5.2844 mg/kg DPD, as indicated below the panels. (A) Effect on planktonic MRSA 43300 two days post-infection. (B) Effect on adherent MRSA after explantation and sonication. (C) Prevention rate. Values in (A) and (B) are median ± IQR and those in (C) are % ([…]; **P < 0.001; ****P < 0.0001; ns, not significant). TEXT PRINTED IN THE PICTURE: (C) DAP: prevention rate (%): 18 | (C) DAP + 5-FU (10): prevention rate (%): 75 | (C) DAP + 5-FU (40): prevention rate (%): 94 | (C) DAP + 5-FU (40) + DPD: prevention rate (%): 12.5 DOUBTS OF THE COPYIST ABOUT THIS PICTURE: Panel C, DAP, prevention rate: 18 or 16 (small print) / Panel C, DAP + 5-FU (10), prevention rate: 75 or 76 (small print) / Panel C: which treatment belongs to each bar was read from the small +/- grid under the plot, so the column alignment is not fully certain

[2] = tested on: MRSA ATCC 43300; design: method as in PMID 21576433; conditions: implant-associated MRSA infection model; cited from earlier work
[3] = tested on: MRSA ATCC 43300; test: AI-2 activity of MRSA ATCC 43300; type: cell-based, Staphylococcus aureus; conditions: 1 μM DPD
Protocol: (§1) To confirm that the phenotype could be restored, 1 μM synthetic (S)-4,5-dihydroxy-2,3-pentanedione (DPD) (Biosynth Carbosynth, Staad, Switzerland) was used. After 3 h under static conditions at 37°C, the supernatant was analysed for AI-2 activity with V. harveyi (MM32).
Figure 4. Bioactivity of 5-FU against MRSA ATCC 43300. (A) Quorum sensing-associated AI-2 activity of MRSA 43300 grown for 3 h with different 5-FU concentrations. (B) Effect of different 5-FU concentrations on MRSA 43300 growth. (C) Interference with biofilm formation. (D) Effect on adherent MRSA 43300. Data points represent three biological replicates expressed as mean ± SD (**P < 0.01; ***P < 0.001; ****P < 0.0001).
Figure 5. Phenotype restoration with synthetic AI-2 supplementation. AI-2 activity of MRSA ATCC 43300 was evaluated with and without 1 μM DPD in the presence of different 5-FU concentrations. The dashed line indicates the baseline level of AI-2 of MRSA ATCC 43300 in the absence of 5-FU. Values represent 3 biological replicates expressed as mean ± SD (**P < 0.01; ****P < 0.0001).

[4] = tested on: SE 1457 wild type; test: AI-2 activity of SE 1457 wild type; type: cell-based, Staphylococcus epidermidis; conditions: 1 μM DPD with increasing 5-FU concentrations, 3 h
Protocol: as §1
Supplementary Figure 4 | Bioactivity of 5-FU against Staphylococcus epidermidis (SE). a) Quorum-sensing-associated AI-2 activity of SE 1457 grown for 3 h in the presence of different 5-FU concentrations (note log scale). b) Reversing effect of 1 µM DPD on the AI-2-reducing action of 5-FU (dashed line indicates AI-2 baseline of SE 1457 without 5-FU). Values represent 3 biological replicates expressed as mean ± SD (*, p < 0.05; **, p < 0.01).

[5] = tested on: AI-2 production by HEK-293AI2 cells expressing MTAN and LuxS; design: method as in PMID 29739943; conditions: earlier proof-of-concept study; cited from earlier work

| SMILES | Effect on biofilm / adherent MRSA [1] | Effect on planktonic MRSA infection [1] | Clearance rate of daptomycin used alone [2] | Effect of DPD on prevention rate ([1]; DPD co-administered with 5-FU and DAP) | Baseline AI-2 activity of MRSA 43300 [3] | AI-2 activity of 5-FU-challenged MRSA supplemented with DPD ([3]; MRSA ATCC 43300) | AI-2 activity of SE 1457 with DPD added to 5-FU [4] | AI-2 production in HEK cells [5] |
| --- | --- | --- | --- | --- | --- | --- | --- | --- |
| CCCCCCCCCC(=O)N[C@@H](Cc1c[nH]c2ccccc12)C(=O)N[C@H](CC(N)=O)C(=O)N[C@@H](CC(=O)O)C(=O)N[C@@H]1C(=O)NCC(=O)N[C@@H](CCCN)C(=O)N[C@@H](CC(=O)O)C(=O)N[C@H](C)C(=O)N[C@@H](CC(=O)O)C(=O)NCC(=O)N[C@H](CO)C(=O)N[C@@H]([C@H](C)CC(=O)O)C(=O)N[C@@H](CC(=O)c2ccccc2N)C(=O)O[C@@H]1C [DAP, daptomycin] | neither 5-FU nor DAP alone was sufficient to contain the infection | failed to clear planktonic MRSA infections | < 20% | – | – | – | – | – |
| CC(=O)C(=O)[C@@H](O)CO [DPD, (S)-4,5-dihydroxy-2,3-pentanedione] | reversed the 5-FU-dependent inhibition | reversed the 5-FU-dependent inhibition | – | decreased the prevention rate to the level observed for DAP monotherapy | little influence | counteracted the effect of 5-FU | AI-2 activity returned almost to baseline | – |
| Nc1ncnc2c([C@@H]3N[C@H](CO)[C@@H](O)[C@H]3O)c[nH]c12 [immunicillin-A] | – | – | – | – | – | – | – | significantly decreased |
